Data as given in patent US20260008760A1, “DIPEPTIDYL PEPTIDASE 1 INHIBITORS AND USES THEREOF” (Insmed Incorporated, priority 2024, published 2026).
“And” between values parts separate entries of the source, which are not always exact repeats. Equal entries are not always repeated. Where two headings read alike, the source gives them in different places.

Assays:
DPP1 in HL-60 cells = DPP1 in HL-60 cells (Homo sapiens, UniProt P53634); assay: DPP1 Cell IC50 assay; type: cell-based; design: host or cells: HL-60 cells; settings: 60 min pre-incubation, H-Gly-Phe-AFC substrate, average of n runs
In short: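 HL-60 cells in PBS (5×10^5 live cells per mL) pre-incubated with compound (0.5% DMSO) 60 min at 37° C, 5% CO2, then H-Gly-Phe-AFC substrate (500 μM stock) added for 30 min. Fluorescence at 400/505 nm; % inhibition vs vehicle wells, IC50 from four-parameter logistic fit.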

human DPP1 enzyme = human DPP1 enzyme (Homo sapiens, UniProt P53634); assay: Human DPP1 Enzyme IC50 Assay; type: biochemical; design: was first proteolytically processed into its mature form using recombinant human cathepsin L; purchased R&D Systems
In short: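 Recombinant human DPP1, pre-activated with cathepsin L (pH 4.5), was preincubated with compound 10 min at 37 °C in MES pH 6.0, 50 mM NaCl, 5 mM DTT, 1% DMSO. Cleavage of 400 μM (final) H-Gly-Arg-AMC followed by fluorescence (350/450 nm) over 90 min at 37 °C; IC50 from four-parameter logistic fit versus no-compound control.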

active mouse DPP1 enzyme = target: T1, active mouse DPP1 enzyme (Mus musculus, UniProt P97821); assay: Mouse DPP1 Enzyme IC50 Assay; type: biochemical
T1 construct: Each subunit is composed of an N-terminal fragment, a heavy chain and a light chain; purchased R&D Systems
Description: Example 96: Mouse DPP1 Enzyme IC50 Assay
Test articles were applied to active mouse DPP1 enzyme (R&D Systems; Minneapolis, MN) in Assay Buffer (50 mM MES pH 5.5, 50 mM NaCl, 5 mM DTT) in a total reaction volume of 125 μL. 25 μL of compound in Assay Buffer plus […] was first added to 50 μL of active mouse DPP1 enzyme at a concentration of 62.5 pg/μL and allowed to pre-incubate for 10 minutes at 37° C. after which 50 μL of […] H-Gly-Arg-AMC substrate (Bachem; St. Torrance, CA) was added, giving final substrate concentration of 400 µM and a final DMSO concentration of […]. Substrate cleavage was measured for 90 minutes at 37° C., with fluorescence at Excitation/Emission 350/450 nm measured every 5 minutes. DPP1 concentration was interpolated based on its activity relative to a standard curve of recombinant active mouse DPP enzyme. IC50 values for each compound were calculated via the XLFit (IDBS Version 5.3.1.3) Add-On to Microsoft Excel using the four parameter fit equation y=(A+((B−A)/(1+((C/x)^D)))), which appears as equation number 205 (4 Parameter Logistic Model or Sigmoidal Dose-Response Model) in XLFit. Default constraints were used for each Parameter. IC50 was defined as the compound concentration at which 50% of enzyme activity was inhibited when compared to the no-compound control.
In Table 2, *** represent average IC50≤5 nM, ** represents average IC50 in the range of 5-20 nM, and * represents average IC50 in the range of ≥20 nM, where the designations were made solely based on the average value without taking into account of the standard deviations.

[1] = read-out: Avg. IC50 (DPP1 Cell IC50 value ranges)
[2] = activated recombinant human DPP1, 400 μM H-Gly-Arg-AMC, 10 minutes pre-incubation at 37° C., pH 6.0, average of n runs, read-out: Avg. IC50 (Human DPP1 enzyme IC50 value ranges)
[3] = active mouse DPP1 enzyme, H-Gly-Arg-AMC substrate, 10 minutes pre-incubation at 37° C., pH 5.5, average of n runs, read-out: Avg. IC50 (Mouse DPP1 enzyme IC50 value ranges)

T1 sequence (P97821 25-134 limits assumed): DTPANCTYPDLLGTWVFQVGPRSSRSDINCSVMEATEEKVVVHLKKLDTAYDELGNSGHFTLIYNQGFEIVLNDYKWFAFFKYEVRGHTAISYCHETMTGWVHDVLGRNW
T1 sequence (P97821 231-393 limits assumed): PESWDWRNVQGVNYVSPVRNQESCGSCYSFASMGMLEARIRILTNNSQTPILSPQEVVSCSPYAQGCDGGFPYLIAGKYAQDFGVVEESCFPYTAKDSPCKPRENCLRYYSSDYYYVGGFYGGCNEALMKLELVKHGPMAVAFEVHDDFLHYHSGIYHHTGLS
T1 sequence (P97821 394-462 limits assumed): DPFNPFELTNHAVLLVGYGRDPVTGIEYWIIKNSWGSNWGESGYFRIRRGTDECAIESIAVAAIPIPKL
Chain of DPP1 in HL-60 cells (P53634 25-463): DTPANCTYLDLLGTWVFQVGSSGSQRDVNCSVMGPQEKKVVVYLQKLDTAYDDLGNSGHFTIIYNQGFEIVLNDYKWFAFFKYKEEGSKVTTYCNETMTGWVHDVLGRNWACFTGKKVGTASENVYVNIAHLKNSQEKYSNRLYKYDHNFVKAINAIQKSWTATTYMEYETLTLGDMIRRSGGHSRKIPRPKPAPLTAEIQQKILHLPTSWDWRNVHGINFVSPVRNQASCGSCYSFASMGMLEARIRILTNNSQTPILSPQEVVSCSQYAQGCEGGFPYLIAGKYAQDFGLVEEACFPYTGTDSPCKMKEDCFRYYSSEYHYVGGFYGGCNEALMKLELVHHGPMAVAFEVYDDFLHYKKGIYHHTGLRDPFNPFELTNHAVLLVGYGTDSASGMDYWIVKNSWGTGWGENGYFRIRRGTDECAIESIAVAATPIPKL
Chain of human DPP1 enzyme (P53634 25-134 limits assumed): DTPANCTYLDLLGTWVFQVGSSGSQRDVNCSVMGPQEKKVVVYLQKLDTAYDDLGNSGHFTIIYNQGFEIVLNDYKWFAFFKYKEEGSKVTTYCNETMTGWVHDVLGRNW
Chain of human DPP1 enzyme (P53634 231-394 limits assumed): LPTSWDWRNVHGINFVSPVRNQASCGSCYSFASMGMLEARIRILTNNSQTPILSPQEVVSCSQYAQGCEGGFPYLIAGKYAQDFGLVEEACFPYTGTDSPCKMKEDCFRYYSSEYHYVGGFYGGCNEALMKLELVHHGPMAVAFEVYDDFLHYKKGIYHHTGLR
Chain of human DPP1 enzyme (P53634 395-463 limits assumed): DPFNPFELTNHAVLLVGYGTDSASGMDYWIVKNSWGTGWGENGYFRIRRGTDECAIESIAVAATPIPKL

| SMILES | IC50 (DPP1 in HL-60 cells; [1]) | IC50 (human DPP1 enzyme; [2]) | IC50 (active mouse DPP1 enzyme; [3]) | IC50 (DPP1 in HL-60 cells; Avg. IC50 (DPP1 Cell IC50 value ranges)) | IC50 (human DPP1 enzyme) | IC50 (active mouse DPP1 enzyme) |
| --- | --- | --- | --- | --- | --- | --- |
| CN1CCC2(CCc3cc(-c4ccc(C[C@@H](C#N)NC(=O)[C@@H]5CNCCCO5)cc4)ccc32)CC1 [Compound 26, (2S)—N-[(1S)-1-cyano-2-(4-{1′-methyl-2,3-dihydrospiro[indene-1,4′-piperidin]-5-yl}phenyl)ethyl]-1,4-oxazepane-2-carboxamide] | > 2.5 nM | > 15 nM | > 20 nM | – | – | – |
| CN1C(=O)C2(CCCN(C3COC3)C2)c2cc(-c3ccc(C[C@@H](C#N)NC(=O)[C@@H]4CNCCCO4)cc3)ccc21 (stereo partly drawn) [Compound 28, (2S)—N-[(1S)-1-cyano-2-{4-[1-methyl-1′-(oxetan-3-yl)-2-oxospiro[indole-3,3′-piperidin]-5-yl]phenyl}ethyl]-1,4-oxazepane-2-carboxamide] | > 2.5 nM | > 15 nM | > 20 nM | – | – | – |
| Cn1nc(F)c2ccc(-c3ccc(C[C@@H](C#N)NC(=O)[C@@H]4CNCCCO4)cc3)cc21 [Compound A1, (S)—N—((S)-1-cyano-2-(4-(3-fluoro-1-methyl-1H-indazol-6-yl)phenyl)ethyl)-1,4-oxazepane-2-carboxamide] | > 2.5 nM | > 15 nM | > 20 nM | – | – | – |
| N#C[C@H](Cc1ccc(-c2ccc3c(c2)CCNC3=O)cc1)NC(=O)[C@@H]1CNCCCO1 [Compound A2, (2S)—N-[(1S)-1-cyano-2-[4-(1-oxo-3,4-dihydro-2H-isoquinolin-6-yl)phenyl]ethyl]-1,4-oxazepane-2-carboxamide] | > 2.5 nM | > 15 nM | > 20 nM | – | – | – |
| CN1CCC(n2ncc3ccc(-c4ccc(C[C@@H](C#N)NC(=O)[C@@H]5CNCCCO5)c(F)c4)cc32)CC1 [Compound A3, (2S)—N-[(1S)-1-cyano-2-{2-fluoro-4-[1-(1-methylpiperidin-4-yl)indazol-6-yl]phenyl}ethyl]-1,4-oxazepane-2-carboxamide] | > 2.5 nM | 5 to 15 nM | > 20 nM | – | – | – |
| N#C[C@H](Cc1ccc(-c2ccc3c(c2)CCCS3)cc1)NC(=O)[C@@H]1CNCCCO1 [Compound A5, (2S)—N-[(1S)-1-cyano-2-[4-(3,4-dihydro-2H-1-benzothiopyran-6-yl)phenyl]ethyl]-1,4-oxazepane-2-carboxamide] | > 2.5 nM | > 15 nM | > 20 nM | – | – | – |
| Cc1cn2cc(-c3ccc(C[C@@H](C#N)NC(=O)[C@@H]4CNCCCO4)cc3)cc2c(C)n1 [Compound A8, (2S)—N-[(1S)-1-cyano-2-(4-{1,3-dimethylpyrrolo[1,2-a]pyrazin-7-yl}phenyl)ethyl]-1,4-oxazepane-2-carboxamide] | > 2.5 nM | > 15 nM | > 20 nM | – | – | – |
| N#C[C@H](Cc1ccc(-c2ccc3c(n2)CCCN3)cc1)NC(=O)[C@@H]1CNCCCO1 [Compound A10, (2S)—N-[(1S)-1-cyano-2-[4-(5,6,7,8-tetrahydro-1,5-naphthyridin-2-yl)phenyl]ethyl]-1,4-oxazepane-2-carboxamide] | > 2.5 nM | > 15 nM | > 20 nM | – | – | – |
| CN1C(=O)CCc2cc(-c3ccc(C[C@@H](C#N)NC(=O)[C@@H]4CNCCCO4)cc3)ccc21 [Compound A21, (2S)—N-[(1S)-1-cyano-2-[4-(1-methyl-2-oxo-3,4-dihydroquinolin-6-yl)phenyl]ethyl]-1,4-oxazepane-2-carboxamide] | > 2.5 nM | > 15 nM | > 20 nM | – | – | – |
| Cc1cn2cc(-c3ccc(C[C@@H](C#N)NC(=O)[C@@H]4CNCCCCO4)cc3)cc2c(C)n1 [Compound A27, (2S)—N-[(1S)-1-cyano-2-(4-{1,3-dimethylpyrrolo[1,2-a]pyrazin-7-yl}phenyl)ethyl]-1,4-oxazocane-2-carboxamide] | > 2.5 nM and 1 to 2.5 nM | > 15 nM | > 20 nM | – | – | – |
| Cc1cn2cc(-c3ccc(C[C@@H](C#N)NC(=O)[C@@H]4CNCCCCO4)c(F)c3)cc2c(C)n1 [Compound A28, (2S)—N-[(1S)-1-cyano-2-(4-{1,3-dimethylpyrrolo[1,2-a]pyrazin-7-yl}-2-fluorophenyl)ethyl]-1,4-oxazocane-2-carboxamide] | 1 to 2.5 nM | > 15 nM | > 20 nM | – | – | – |
| CO[C@@H]1CCNC[C@@H](C(=O)N[C@H](C#N)Cc2ccc(-c3cc4c(C)nc(C)cn4c3)cc2F)OC1 [Compound A47, (2S,7R)—N-[(1S)-1-cyano-2-(4-{1,3-dimethylpyrrolo[1,2-a]pyrazin-7-yl}-2-fluorophenyl)ethyl]-7-methoxy-1,4-oxazocane-2-carboxamide] | 1 to 2.5 nM | < 5 nM | < 5 nM | – | – | – |
| N#C[C@H](Cc1cc2c(cc1F)-c1cc(C3COC3)c(F)cc1CO2)NC(=O)[C@@H]1CNCCCO1 [Compound B2, (2S)—N-{1-cyano-2-[2,8-difluoro-9-(oxetan-3-yl)-6H-benzo[c]chromen-3-yl]ethyl}-1,4-oxazepane-2-carboxamide] | – | – | – | 1 to 2.5 nM | 5 to 15 nM | 5 to 20 nM |
| N#Cc1ccc2c(c1)COc1cc(CC(C#N)NC(=O)[C@@H]3CNCCCCO3)c(F)cc1-2 (stereo partly drawn) [Compound B7, (2S)—N-(1-cyano-2-(8-cyano-2-fluoro-6H-benzo[c]chromen-3-yl)ethyl)-1,4-oxazocane-2-carboxamide] | > 2.5 nM | > 15 nM | > 20 nM | – | – | – |
| N#C[C@H](Cc1cc2c(cc1F)-c1cc(C3COC3)c(F)cc1CO2)NC(=O)[C@@H]1CNCCCCO1 [Compound B10-B] | 1 to 2.5 nM | 5 to 15 nM | < 5 nM | – | – | – |
| CO[C@@H]1CCNC[C@@H](C(=O)N[C@H](C#N)Cc2ccc(-c3ccc(C#N)cc3)cc2F)OC1 [Compound F4, (2S,7R)—N—((S)-1-cyano-2-(4′-cyano-3-fluoro-[1,1′-biphenyl]-4-yl)ethyl)-7-methoxy-1,4-oxazocane-2-carboxamide] | < 1 nM | < 5 nM | < 5 nM | – | – | – |
